What all share (experiment): NCI-60 cell line screen, 48 h
Assay [1] relates to RXF 393 renal.
For assay [2], the system named is MOLT-4 leukemia.
The subject of assay [3] is SK-OV-3 ovarian.
Assay [4] relates to RPMI-8226 leukemia.
In assay [5] the test system is HOP-92 NSCLC.
For assay [6], the system named is NCI-H23 lung.
The test system of assay [7] is SNB-75 CNS.
For assay [8], the system named is NCI-H460 lung.
For assay [9], the system named is U251 CNS.
Assay [10] has as its system HOP-62 NSCLC.

Here are results for twelve compounds from PubChem BioAssay (NCI).

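Cultured in 96-well plates, cells were exposed to test compound for 48 hours across five concentrations. Here, GI50 denotes the concentration required for 50% inhibition of growth. TGI denotes the concentration required for complete inhibition of growth.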

Consider `N.N.N.N.N.N.O=N[O-].[Br-].[Co+3].[Co+3].[OH3+].[OH3+]`, for which the GI50 in [1] was above 100 µM; in assay [2], above 100 µM; in assay [3] it was above 100000 nM; in assay [4], above 100000 nM; in [5], above 100 µM; in assay [6], above 100 µM. The GI50 in assay [7] was above 100000 nM. Moreover, the TGI in assay [1], in assay [2], in [3], in assay [4], in [5] and in assay [6] was above 100 µM in each case. The compound also had a TGI in assay [7] above 100 µM.
As to `CCC(c1cccc(O)c1)C(CC)c1cccc(O)c1` (stereo not given), the GI50 in [1] is 2.75 µM; in [8], 2980 nM; in assay [3] it was 2760 nM; in [9], 3.63 µM; in [4], 2050 nM; in assay [6] it was 4.08 µM. Also, the GI50 in assay [7] was 973 nM; in [10], 4.89 µM. The TGI came out at 10.6 µM in assay [1]; 12.8 µM in assay [8]; 11.1 µM in assay [3]; 14.7 µM in assay [9]; 7.73 µM in assay [4]; 16.6 µM in assay [6]. Further, the TGI is 11.7 µM in [7] and 17.4 µM in assay [10].
As for `Cc1ccc(S(=O)(=O)N=Nc2c(O)[nH]c3c(Cl)cc(Cl)cc23)cc1`, the TGI in assay [1], in assay [8], in assay [2], in assay [3], in [9] and in assay [5] was above 100 µM in each case. In addition, the TGI in assay [6] and in [10] was above 100 µM in each case.
Consider `CCOc1ccccc1NC(=O)CCc1nc(=S)[nH][nH]1`, for which the TGI in assay [1], in assay [8], in assay [2], in [3], in assay [9] and in [4] was above 100 µM in each case. Moreover, the TGI in assay [5], in assay [6] and in assay [10] was above 100 µM in each case.
Regarding `Cc1cc2c(=O)c3ccccc3[nH]c2c(C(=O)O)c1C`, the TGI in [1], in [8], in [2], in [9], in assay [4] and in [6] was above 100 µM each time. The TGI in [7] and in assay [10] was above 100 µM in each case.
Consider `Cc1c(Cl)cccc1NC(=O)CC1C(=O)Nc2ccccc2S1(=O)=O` (stereo not given), for which the TGI in [1] came out at 28.9 µM; in [8], 30 µM; in assay [2] it was 24.3 µM; in [9], 26.5 µM; in assay [4], 32.3 µM; in assay [5], 31.7 µM. Further, the TGI in [6] was 37.3 µM; in assay [7] it was 32.5 µM.
With `Fc1cccc(Cl)c1/C=N\N=C1c2ccccc2-c2ccccc21`, the TGI in assay [1], in [8], in assay [2], in [3], in assay [9] and in [4] was above 100 µM each time. The TGI in assay [5], in assay [6] and in [10] was above 100 µM throughout.
Turning to `CC(=O)Nc1ccc(S(=O)(=O)NNC(=O)c2cccnc2Nc2ccc(Cl)cc2)cc1`, the GI50 in assay [1] was 37.3 µM; in [8], 4690 nM; in assay [2], 49.6 µM; in assay [3], 57500 nM; in assay [9] it was 23.8 µM; in [4] it was 28600 nM. For the same compound, the figures for the GI50 in [5], in assay [7] and in assay [10] were above 100 µM, 5540 nM and above 100 µM, respectively. In addition, the TGI in assay [1], in assay [8], in [2], in assay [3], in assay [9] and in [4] was above 100 µM each time. Also, the TGI in [5], in assay [7] and in assay [10] was above 100 µM each time.
For the compound `COC(=O)C1=C(CS(=O)c2ccccc2[N+](=O)[O-])ON(C)C1c1ccccc1` (stereo not given), the TGI is 71.1 µM in assay [1]; above 100 µM in assay [8]; above 100 µM in assay [2]; above 100 µM in [3]; above 100 µM in [9]; above 100 µM in [4]. Also, the figures for the TGI in assay [6], in assay [7] and in assay [10] were above 100 µM, 84.5 µM and above 100 µM, respectively.
Consider `COC1CC(OC(=O)c2ccccc2)C(OC(=O)c2ccccc2)C(C)O1` (stereo not given), for which the TGI in [1], in assay [8], in assay [2], in assay [3], in [9] and in [4] was above 100 µM each time. The TGI in [5], in assay [6] and in assay [10] was above 100 µM throughout.
Turning to `CC(=O)OC1[C@H]2c3cc4c(cc3CN3CCC(=C[C@@H]1O)C23)OCO4` (stereo not given in full), the TGI in assay [1], in assay [8], in [2], in assay [3], in assay [9] and in assay [4] was above 100 µM throughout. Moreover, the TGI in assay [6], in assay [7] and in [10] was above 100 µM in each case.
In the case of `COc1ccc(CN2c3ccccc3CCc3ccccc32)cc1F`, the GI50 was 419 nM in assay [8]; 0.554 µM in assay [2]; 471 nM in assay [3]; 0.496 µM in assay [9]; 644 nM in [4]; 0.587 µM in assay [5]. Further, the figures for the GI50 in assay [6], in [7] and in assay [10] were 0.672 µM, 277 nM and 0.529 µM, respectively. Also, the TGI is above 100 µM in [8]; above 100 µM in assay [2]; above 100 µM in [3]; above 100 µM in assay [9]; above 100 µM in assay [4]; 48 µM in [5]. Besides, the TGI in [6], in assay [7] and in assay [10] was above 100 µM throughout.
